Reference: PubChem BioAssay (NCI)
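How tested: cells in 96-well plates exposed to compound for 48 hours at five concentrations. Definition used: TGI = concentration required for complete inhibition of growth.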

Columns and labels:
Experiment in all cases: inhibition of tumour cell growth, NCI panel, 48 h
[1] = system: 786-0 renal
[2] = system: A498 renal
[3] = system: A549 NSCLC
[4] = system: ACHN renal
[5] = system: BT-549 breast
[6] = system: CAKI-1 renal
[7] = system: CCRF-CEM leukemia
[8] = system: COLO 205 colon
[9] = system: DU-145 prostate
[10] = system: EKVX NSCLC
[11] = system: HCC-2998 colon
[12] = system: HCT-116 colon
[13] = system: HCT-15 colon
[14] = system: HL-60(TB) leukemia
[15] = system: HOP-62 NSCLC
[16] = system: HOP-92 NSCLC
[17] = system: HS 578T breast
[18] = system: HT29 colon
[19] = system: IGROV1 ovarian
[20] = system: K-562 leukemia
[21] = system: KM12 colon
[22] = system: LOX IMVI melanoma
[23] = system: M14 melanoma
[24] = system: MALME-3M melanoma
[25] = system: MCF7 breast
[26] = system: MDA-MB-231 breast
[27] = system: MDA-MB-435
[28] = system: MDA-N
[29] = system: MOLT-4 leukemia
[30] = system: NCI-H226 lung
[31] = system: NCI-H23 lung
[32] = system: NCI-H460 lung
[33] = system: NCI-H522 lung
[34] = system: NCI/ADR-RES ovarian
[35] = system: OVCAR-3 ovarian
[36] = system: OVCAR-4 ovarian
[37] = system: OVCAR-5 ovarian
[38] = system: OVCAR-8 ovarian
[39] = system: PC-3 prostate
[40] = system: RPMI-8226 leukemia
[41] = system: RXF 393 renal
[42] = system: SF-268 CNS
[43] = system: SF-295 CNS
[44] = system: SF-539 CNS
[45] = system: SK-MEL-2 melanoma
[46] = system: SK-MEL-28 melanoma
[47] = system: SK-MEL-5 melanoma
[48] = system: SK-OV-3 ovarian
[49] = system: SN12C renal
[50] = system: SNB-19 CNS
[51] = system: SNB-75 CNS
[52] = system: SR leukemia
[53] = system: SW-620 colon
[54] = system: T-47D breast
[55] = system: TK-10 renal
[56] = system: U251 CNS
[57] = system: UACC-257 melanoma
[58] = system: UACC-62 melanoma
[59] = system: UO-31 renal

SMILES: O=[N+]([O-])/C(Cl)=C(/C(Cl)=C(Cl)Cl)N1CCOCC1
- TGI [1]: 10 µM
- TGI [2]: 7.79 µM
- TGI [3]: 15.6 µM
- TGI [4]: 20.5 µM
- TGI [5]: 8.86 µM
- TGI [6]: 12.7 µM
- TGI [7]: 7.23 µM
- TGI [8]: 5.45 µM
- TGI [9]: 26.9 µM
- TGI [10]: 21.6 µM
- TGI [11]: 7.52 µM
- TGI [12]: 7.51 µM
- TGI [13]: 3.24 µM
- TGI [14]: 5.23 µM
- TGI [15]: 2.5 µM
- TGI [16]: 4.88 µM
- TGI [17]: 14.9 µM
- TGI [18]: 14.2 µM
- TGI [19]: 3.88 µM
- TGI [20]: 12.8 µM
- TGI [21]: 13.1 µM
- TGI [22]: 17.3 µM
- TGI [23]: 7.66 µM
- TGI [24]: 3.07 µM
- TGI [25]: 8.25 µM
- TGI [26]: 8.89 µM
- TGI [27]: 7.64 µM
- TGI [28]: 6.77 µM
- TGI [29]: 7.32 µM
- TGI [30]: 40.4 µM
- TGI [31]: 5.68 µM
- TGI [32]: 18.4 µM
- TGI [33]: 4.73 µM
- TGI [34]: 14.9 µM
- TGI [35]: 4.86 µM
- TGI [36]: 16.7 µM
- TGI [37]: 22 µM
- TGI [38]: 11.9 µM
- TGI [39]: 19.3 µM
- TGI [40]: 6.58 µM
- TGI [41]: 7.93 µM
- TGI [42]: 24.4 µM
- TGI [43]: 25.8 µM
- TGI [44]: 9.05 µM
- TGI [45]: 11.6 µM
- TGI [46]: 34.3 µM
- TGI [47]: 3.48 µM
- TGI [48]: 27.3 µM
- TGI [49]: 20 µM
- TGI [50]: 38.3 µM
- TGI [51]: 17.9 µM
- TGI [52]: 6.42 µM
- TGI [53]: 11.7 µM
- TGI [54]: 9.36 µM
- TGI [55]: 13.6 µM
- TGI [56]: 27 µM
- TGI [57]: 9.3 µM
- TGI [58]: 5.62 µM
- TGI [59]: 12.8 µM

SMILES: Cc1ccc2nc(NS(=O)(=O)c3cc(C)c(Cl)cc3S)[nH]c2c1
- TGI [1]: > 100 µM
- TGI [2]: > 100 µM
- TGI [3]: > 100 µM
- TGI [4]: > 100 µM
- TGI [5]: > 100 µM
- TGI [6]: > 100 µM
- TGI [7]: 69.8 µM
- TGI [8]: > 100 µM
- TGI [9]: > 100 µM
- TGI [10]: > 100 µM
- TGI [11]: > 100 µM
- TGI [12]: > 100 µM
- TGI [13]: > 100 µM
- TGI [14]: 72.7 µM
- TGI [15]: > 100 µM
- TGI [16]: > 100 µM
- TGI [17]: > 100 µM
- TGI [18]: > 100 µM
- TGI [19]: > 100 µM
- TGI [20]: > 100 µM
- TGI [21]: > 100 µM
- TGI [22]: 73.2 µM
- TGI [23]: > 100 µM
- TGI [24]: > 100 µM
- TGI [25]: > 100 µM
- TGI [26]: > 100 µM
- TGI [27]: > 100 µM
- TGI [28]: > 100 µM
- TGI [29]: > 100 µM
- TGI [31]: > 100 µM
- TGI [32]: 38.6 µM
- TGI [33]: > 100 µM
- TGI [34]: > 100 µM
- TGI [35]: > 100 µM
- TGI [36]: > 100 µM
- TGI [37]: > 100 µM
- TGI [38]: > 100 µM
- TGI [39]: > 100 µM
- TGI [40]: > 100 µM
- TGI [41]: > 100 µM
- TGI [42]: > 100 µM
- TGI [43]: > 100 µM
- TGI [44]: > 100 µM
- TGI [45]: > 100 µM
- TGI [46]: > 100 µM
- TGI [47]: > 100 µM
- TGI [48]: > 100 µM
- TGI [49]: > 100 µM
- TGI [50]: > 100 µM
- TGI [51]: > 100 µM
- TGI [52]: > 100 µM
- TGI [53]: > 100 µM
- TGI [54]: > 100 µM
- TGI [55]: > 100 µM
- TGI [56]: > 100 µM
- TGI [57]: > 100 µM
- TGI [58]: > 100 µM
- TGI [59]: > 100 µM
